Reference: patent US20190249218A1, “Method, Medium and Kit for Detecting Multiple Aminoglycoside Resistance Including 16S rRNA Methylase Mediated Resistance in Gram-Negative Bacteria” (priority 2016, published 2019)
≈ marks a conversion by molar mass, not a printed value. Read-outs that look alike come from different tables or passages of the source.

Tested on: K. pneumoniae
Assay: MIC by broth microdilution
Type: cell-based, Klebsiella pneumoniae
Experimental: MICs of amikacin and gentamicin were determined using the broth microdilution method in cation-adjusted Mueller-Hinton broth, as recommended by the Clinical Laboratory Standard Institute (CLSI) guidelines (8). Amikacin and gentamicin sulfate (Fluorochem, Dertbyshire, UK) were tested over a range of dilutions from 0.25 to 256 μg/ml. A final inoculum of 5.10^5 CFU/ml of each strain was distributed in the 96 wells tray (Sarstedt, Ntimbrecht, Germany). All experiments were repeated in triplicate and E. coli ATCC 25922 was used as quality control. According to the CLSI breakpoints (9), Enterobacteriaceae isolates with gentamicin MICs≤4 and amikacin MICs≤16 mg/L were categorized as susceptible, while those with gentamicin MICs≥16 and amikacin MICs≥64 mg/L were categorized as resistant.
MICs of amikacin and gentamicin were determined as described above in Example 1.

[1] = isolate 13000, K. pneumoniae, APH(3′)-I + AAC(3)-V
[2] = isolate 22233, K. pneumoniae, AAC(3)-V
[3] = isolate N34, K. pneumoniae, rmtC
[4] = isolate R108, K. pneumoniae, armA
[5] = isolate R347, K. pneumoniae, AG susceptible
[6] = isolate R500, K. pneumoniae, armA
[7] = isolate R502, K. pneumoniae, rmtF
[8] = isolate R2160, K. pneumoniae, rmtG
[9] = isolate R2257, K. pneumoniae, armA
[10] = isolate S155, K. pneumoniae, AG susceptible
[11] = isolate 1800, K. pneumoniae, AAC(6′)-I + AAC(3)-I

## NCC[C@H](O)C(=O)N[C@@H]1C[C@H](N)[C@@H](O[C@H]2O[C@H](CN)[C@@H](O)[C@H](O)[C@H]2O)[C@H](O)[C@H]1O[C@H]1O[C@H](CO)[C@@H](O)[C@H](N)[C@H]1O [Amikacin]
Klebsiella pneumoniae, isolate 1800, K. pneumoniae, AAC(6′)-I + AAC(3)-I, read-out: MIC
  MIC: 32 µg/mL
Klebsiella pneumoniae, isolate 13000, K. pneumoniae, APH(3′)-I + AAC(3)-V, read-out: MIC
  MIC: 0.5 µg/mL
Klebsiella pneumoniae, isolate 22233, K. pneumoniae, AAC(3)-V, read-out: MIC
  MIC: 16 µg/mL (≈ 27.3 µM)
Klebsiella pneumoniae, isolate N34, K. pneumoniae, rmtC, read-out: MIC
  MIC: > 256 µg/mL
Klebsiella pneumoniae, isolate R108, K. pneumoniae, armA, read-out: MIC
  MIC: > 256 µg/mL
Klebsiella pneumoniae, isolate R347, K. pneumoniae, AG susceptible, read-out: MIC
  MIC: 4 µg/mL (≈ 6.83 µM)
Klebsiella pneumoniae, isolate R500, K. pneumoniae, armA, read-out: MIC
  MIC: > 256 µg/mL
Klebsiella pneumoniae, isolate R502, K. pneumoniae, rmtF, read-out: MIC
  MIC: > 256 µg/mL
Klebsiella pneumoniae, isolate R2160, K. pneumoniae, rmtG, read-out: MIC
  MIC: > 256 µg/mL
Klebsiella pneumoniae, isolate R2257, K. pneumoniae, armA, read-out: MIC
  MIC: > 256 µg/mL
Klebsiella pneumoniae, isolate S155, K. pneumoniae, AG susceptible, read-out: MIC
  MIC: 2 µg/mL (≈ 3.42 µM)
Klebsiella pneumoniae, strain 1800, K. pneumoniae, AAC(6′)-I + AAC(3)-I, read-out: MIC
  MIC: 32 µg/mL
Klebsiella pneumoniae, strain 13000, K. pneumoniae, APH(3′)-I + AAC(3)-V, read-out: MIC
  MIC: 0.5 µg/mL
Klebsiella pneumoniae, strain 22233, K. pneumoniae, AAC(3)-V, read-out: MIC
  MIC: 16 µg/mL (≈ 27.3 µM)
Klebsiella pneumoniae, strain N34, K. pneumoniae, rmtC, read-out: MIC
  MIC: > 512 µg/mL
Klebsiella pneumoniae, strain R108, K. pneumoniae, armA, read-out: MIC
  MIC: > 512 µg/mL
Klebsiella pneumoniae, strain R347, K. pneumoniae, susceptible, read-out: MIC
  MIC: 4 µg/mL (≈ 6.83 µM)
Klebsiella pneumoniae, strain R500, K. pneumoniae, armA, read-out: MIC
  MIC: > 512 µg/mL
Klebsiella pneumoniae, strain R502, K. pneumoniae, rmtF, read-out: MIC
  MIC: > 512 µg/mL
Klebsiella pneumoniae, strain R2160, K. pneumoniae, rmtG, read-out: MIC
  MIC: > 512 µg/mL
Klebsiella pneumoniae, strain R2257, K. pneumoniae, armA, read-out: MIC
  MIC: > 512 µg/mL
Klebsiella pneumoniae, strain S155, K. pneumoniae, susceptible, read-out: MIC
  MIC: 2 µg/mL (≈ 3.42 µM)
[1]
  Amikacin Phenotype: S (amikacin MICs≤16 mg/L were categorized as susceptible)
[2]
  Amikacin Phenotype: S (amikacin MICs≤16 mg/L were categorized as susceptible)
[3]
  Amikacin Phenotype: R (amikacin MICs≥64 mg/L were categorized as resistant)
[4]
  Amikacin Phenotype: R (amikacin MICs≥64 mg/L were categorized as resistant)
[5]
  Amikacin Phenotype: S (amikacin MICs≤16 mg/L were categorized as susceptible)
[6]
  Amikacin Phenotype: R (amikacin MICs≥64 mg/L were categorized as resistant)
[7]
  Amikacin Phenotype: R (amikacin MICs≥64 mg/L were categorized as resistant)
[8]
  Amikacin Phenotype: R (amikacin MICs≥64 mg/L were categorized as resistant)
[9]
  Amikacin Phenotype: R (amikacin MICs≥64 mg/L were categorized as resistant)
[10]
  Amikacin Phenotype: S (amikacin MICs≤16 mg/L were categorized as susceptible)

## Gentamicin
[11]
  Gentamicin Phenotype: R (gentamicin MICs≥16)
  MIC: 16 µg/mL
[1]
  Gentamicin Phenotype: R (gentamicin MICs≥16)
  MIC: 128 µg/mL
[2]
  Gentamicin Phenotype: R (gentamicin MICs≥16)
  MIC: 128 µg/mL
[3]
  Gentamicin Phenotype: R (gentamicin MICs≥16)
  MIC: >256 µg/mL
[4]
  Gentamicin Phenotype: R (gentamicin MICs≥16)
  MIC: >256 µg/mL
[5]
  Gentamicin Phenotype: S (gentamicin MICs≤4)
  MIC: 0.5 µg/mL
[6]
  Gentamicin Phenotype: R (gentamicin MICs≥16)
  MIC: >256 µg/mL
[7]
  Gentamicin Phenotype: R (gentamicin MICs≥16)
  MIC: >256 µg/mL
[8]
  Gentamicin Phenotype: R (gentamicin MICs≥16)
  MIC: >256 µg/mL
[9]
  Gentamicin Phenotype: R (gentamicin MICs≥16)
  MIC: >256 µg/mL
[10]
  Gentamicin Phenotype: S (gentamicin MICs≤4)
  MIC: 0.5 µg/mL
Strain 1800, K. pneumoniae, AAC(6′)-I + AAC(3)-I
  MIC: 16 µg/mL
Strain 13000, K. pneumoniae, APH(3′)-I + AAC(3)-V
  MIC: 128 µg/mL
Strain 22233, K. pneumoniae, AAC(3)-V
  MIC: 128 µg/mL
Strain N34, K. pneumoniae, rmtC
  MIC: >256 µg/mL
Strain R108, K. pneumoniae, armA
  MIC: >256 µg/mL
Strain R347, K. pneumoniae, susceptible
  MIC: 0.5 µg/mL
Strain R500, K. pneumoniae, armA
  MIC: >256 µg/mL
Strain R502, K. pneumoniae, rmtF
  MIC: >256 µg/mL
Strain R2160, K. pneumoniae, rmtG
  MIC: >256 µg/mL
Strain R2257, K. pneumoniae, armA
  MIC: >256 µg/mL
Strain S155, K. pneumoniae, susceptible
  MIC: 0.5 µg/mL
